Common to all, as to type: biochemical
Test [1] concerns the target recombinant human PI3Kδ (6-His(p110-p85α)) (Homo sapiens (Human), UniProt O00329). The experiment in a line: Enzymatic activity assay for recombinant human PI3Kδ (ADP-Glo). The settings on record: 0.6 nM PI3Kδ, 20 μM ATP, 80 μM DiC8-PIP2, ADP-Glo. How it is done: (§1) Enzymatic Activity Assay for Recombinant Human PI3K α, β, δ and γ.
(§2) The activity of recombinant human PI3Kγ ((aa144-1102)-6His) and PI3Kα, β, δ (6-His(p110-p85α)) was determined by measuring the ADP level after phosphorylation of DiC8-PIP2 using a commercially available ADP-Glo™ kit from Promega. The assay was carried out in white low volume 384 well plates in a final volume of 14 μl at R.T. The assay conditions contained the following: 50 mM Tris buffer pH 7.4, 2.1 mM DTT, 3 mM MgCl2, 0.05% CHAPS, 20 μM ATP, 80 μM DiC8-PIP2 and 1.2 nM PI3Kα, β, γ or 0.6 nM PI3Kδ. […] Routinely, inhibitors were pre-incubated with 3 μl of enzyme for 15 min prior to the addition of 2 μl substrate mixture for a further 60 min enzyme reaction. The phosphorylation was stopped with the addition of 3 μl ADP-Glo™ reagent (stop solution) followed by a 40 min incubation. Prior to detection 6 μl of ADP-Glo™ Kinase Detection Reagent was added and the plates were read in a micro plate reader using a Luminescence filter. All additions were followed by a short centrifugation step.
In general terms: ADP-Glo turns the ADP formed in a reaction into a luminescent signal.

Test [2] deals with recombinant human PI3Kγ ((aa144-1102)-6His) (Homo sapiens (Human), UniProt P48736). The experiment in a line: Enzymatic activity assay for recombinant human PI3Kγ (ADP-Glo). The settings on record: 1.2 nM PI3Kγ, 20 μM ATP, 80 μM DiC8-PIP2, ADP-Glo. As for the experimental part: as §1, §2
The target in test [3] is recombinant human PI3Kα (6-His(p110-p85α)) (Homo sapiens (Human), UniProt P42336). The experiment in a line: Enzymatic activity assay for recombinant human PI3Kα (ADP-Glo). The settings on record: 1.2 nM PI3Kα, 20 μM ATP, 80 μM DiC8-PIP2, ADP-Glo. As for the experimental part:
as §1
as §2, with “PI3Kδ. Potential inhibitors were made up in DMSO and then diluted in the assay to give a final concentration of not exceeding 1% (v/v) DMSO.” for “PI3Kδ.”

The target in test [4] is recombinant human PI3Kβ (6-His(p110-p85α)) (Homo sapiens (Human), UniProt P42338). Put plainly: Enzymatic activity assay for recombinant human PI3Kβ (ADP-Glo). The settings on record: 1.2 nM PI3Kβ, 20 μM ATP, 80 μM DiC8-PIP2, ADP-Glo. As for the experimental part: as §1
as §2, with “PI3Kδ. Potential inhibitors were made up in DMSO and then diluted in the assay to give a final concentration of not exceeding 1% (v/v) DMSO.” for “PI3Kδ.”

Molecules are shown by their SMILES. pIC50: −log10 of the molar value.

Chain of recombinant human PI3Kδ (6-His(p110-p85α)) (O00329 whole entry, the tested form may be a part): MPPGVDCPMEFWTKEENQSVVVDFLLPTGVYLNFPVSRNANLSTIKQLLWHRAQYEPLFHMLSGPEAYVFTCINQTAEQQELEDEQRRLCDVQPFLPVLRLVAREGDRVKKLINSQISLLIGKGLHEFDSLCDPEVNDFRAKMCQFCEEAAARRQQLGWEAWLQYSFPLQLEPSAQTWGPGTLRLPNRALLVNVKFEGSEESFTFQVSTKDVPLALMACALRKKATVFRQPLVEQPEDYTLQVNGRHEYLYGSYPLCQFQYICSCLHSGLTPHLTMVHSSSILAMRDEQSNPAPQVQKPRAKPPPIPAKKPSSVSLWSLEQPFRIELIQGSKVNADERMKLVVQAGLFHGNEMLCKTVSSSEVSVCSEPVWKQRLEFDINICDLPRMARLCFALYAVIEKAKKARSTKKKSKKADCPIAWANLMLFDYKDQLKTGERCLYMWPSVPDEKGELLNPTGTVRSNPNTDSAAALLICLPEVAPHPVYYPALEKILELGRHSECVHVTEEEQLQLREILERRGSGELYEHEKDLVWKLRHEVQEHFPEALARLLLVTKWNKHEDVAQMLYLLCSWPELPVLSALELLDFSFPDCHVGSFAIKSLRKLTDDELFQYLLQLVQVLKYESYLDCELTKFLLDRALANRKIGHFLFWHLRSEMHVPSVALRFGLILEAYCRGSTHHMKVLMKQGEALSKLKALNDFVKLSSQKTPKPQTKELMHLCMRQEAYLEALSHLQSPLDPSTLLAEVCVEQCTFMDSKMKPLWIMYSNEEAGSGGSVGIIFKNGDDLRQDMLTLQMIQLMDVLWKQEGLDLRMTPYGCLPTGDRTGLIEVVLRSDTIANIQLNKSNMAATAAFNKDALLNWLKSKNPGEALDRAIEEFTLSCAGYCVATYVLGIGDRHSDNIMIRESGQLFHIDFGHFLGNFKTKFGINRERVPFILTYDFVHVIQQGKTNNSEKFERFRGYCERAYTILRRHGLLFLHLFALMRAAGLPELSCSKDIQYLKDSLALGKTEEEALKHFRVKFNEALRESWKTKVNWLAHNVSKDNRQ
Chain of recombinant human PI3Kδ (6-His(p110-p85α)) (P27986 whole entry partner, the tested form may be a part): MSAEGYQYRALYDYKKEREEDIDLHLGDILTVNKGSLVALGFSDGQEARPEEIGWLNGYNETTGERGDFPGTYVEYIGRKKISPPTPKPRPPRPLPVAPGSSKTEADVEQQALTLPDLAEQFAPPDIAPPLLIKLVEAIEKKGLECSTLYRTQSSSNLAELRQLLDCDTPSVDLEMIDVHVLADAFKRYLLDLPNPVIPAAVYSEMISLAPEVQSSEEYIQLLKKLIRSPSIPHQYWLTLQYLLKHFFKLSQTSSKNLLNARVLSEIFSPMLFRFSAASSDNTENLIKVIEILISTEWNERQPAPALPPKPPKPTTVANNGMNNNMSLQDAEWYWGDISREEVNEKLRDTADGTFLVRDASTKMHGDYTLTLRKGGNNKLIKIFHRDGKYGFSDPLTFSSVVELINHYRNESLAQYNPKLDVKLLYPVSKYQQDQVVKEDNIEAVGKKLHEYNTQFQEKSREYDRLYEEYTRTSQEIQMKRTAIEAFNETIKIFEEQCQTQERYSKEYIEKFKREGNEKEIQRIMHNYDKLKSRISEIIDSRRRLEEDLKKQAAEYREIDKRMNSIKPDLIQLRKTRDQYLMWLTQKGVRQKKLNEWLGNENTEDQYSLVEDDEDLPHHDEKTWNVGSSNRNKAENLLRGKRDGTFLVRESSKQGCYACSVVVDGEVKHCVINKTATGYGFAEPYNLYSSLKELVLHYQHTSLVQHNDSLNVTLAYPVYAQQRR
Chain of recombinant human PI3Kα (6-His(p110-p85α)) (P42336 whole entry): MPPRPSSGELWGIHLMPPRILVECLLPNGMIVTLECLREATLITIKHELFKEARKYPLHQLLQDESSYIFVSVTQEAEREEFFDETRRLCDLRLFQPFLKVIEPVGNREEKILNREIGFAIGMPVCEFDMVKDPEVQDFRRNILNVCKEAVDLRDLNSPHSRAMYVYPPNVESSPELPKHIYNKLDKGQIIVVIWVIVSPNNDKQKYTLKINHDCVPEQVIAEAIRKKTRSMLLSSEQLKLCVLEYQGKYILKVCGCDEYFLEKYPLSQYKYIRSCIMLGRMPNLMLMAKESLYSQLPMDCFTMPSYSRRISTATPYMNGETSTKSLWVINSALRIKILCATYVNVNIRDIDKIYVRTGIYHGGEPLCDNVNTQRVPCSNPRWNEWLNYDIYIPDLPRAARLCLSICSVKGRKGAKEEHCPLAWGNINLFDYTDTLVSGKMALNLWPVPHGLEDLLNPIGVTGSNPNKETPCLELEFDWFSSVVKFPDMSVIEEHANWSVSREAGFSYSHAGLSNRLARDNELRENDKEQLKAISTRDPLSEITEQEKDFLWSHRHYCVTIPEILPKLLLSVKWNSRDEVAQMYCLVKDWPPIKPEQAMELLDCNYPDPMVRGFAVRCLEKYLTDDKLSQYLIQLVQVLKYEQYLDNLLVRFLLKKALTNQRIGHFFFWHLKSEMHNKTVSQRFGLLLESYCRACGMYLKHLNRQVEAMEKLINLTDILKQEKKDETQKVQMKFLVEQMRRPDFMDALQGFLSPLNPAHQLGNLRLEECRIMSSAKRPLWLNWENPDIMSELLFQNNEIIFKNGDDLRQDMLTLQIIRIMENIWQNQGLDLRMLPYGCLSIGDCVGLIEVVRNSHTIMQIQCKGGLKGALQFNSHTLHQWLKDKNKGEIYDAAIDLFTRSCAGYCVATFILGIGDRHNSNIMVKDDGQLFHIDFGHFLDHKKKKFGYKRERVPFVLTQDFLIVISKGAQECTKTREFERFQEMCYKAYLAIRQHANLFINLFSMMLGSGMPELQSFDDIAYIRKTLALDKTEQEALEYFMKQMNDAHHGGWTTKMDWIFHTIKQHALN
Chain of recombinant human PI3Kα (6-His(p110-p85α)) (P27986 whole entry partner): as the sequence (P27986 whole entry partner, the tested form may be a part) above
Chain of recombinant human PI3Kγ ((aa144-1102)-6His) (P48736 144-1102): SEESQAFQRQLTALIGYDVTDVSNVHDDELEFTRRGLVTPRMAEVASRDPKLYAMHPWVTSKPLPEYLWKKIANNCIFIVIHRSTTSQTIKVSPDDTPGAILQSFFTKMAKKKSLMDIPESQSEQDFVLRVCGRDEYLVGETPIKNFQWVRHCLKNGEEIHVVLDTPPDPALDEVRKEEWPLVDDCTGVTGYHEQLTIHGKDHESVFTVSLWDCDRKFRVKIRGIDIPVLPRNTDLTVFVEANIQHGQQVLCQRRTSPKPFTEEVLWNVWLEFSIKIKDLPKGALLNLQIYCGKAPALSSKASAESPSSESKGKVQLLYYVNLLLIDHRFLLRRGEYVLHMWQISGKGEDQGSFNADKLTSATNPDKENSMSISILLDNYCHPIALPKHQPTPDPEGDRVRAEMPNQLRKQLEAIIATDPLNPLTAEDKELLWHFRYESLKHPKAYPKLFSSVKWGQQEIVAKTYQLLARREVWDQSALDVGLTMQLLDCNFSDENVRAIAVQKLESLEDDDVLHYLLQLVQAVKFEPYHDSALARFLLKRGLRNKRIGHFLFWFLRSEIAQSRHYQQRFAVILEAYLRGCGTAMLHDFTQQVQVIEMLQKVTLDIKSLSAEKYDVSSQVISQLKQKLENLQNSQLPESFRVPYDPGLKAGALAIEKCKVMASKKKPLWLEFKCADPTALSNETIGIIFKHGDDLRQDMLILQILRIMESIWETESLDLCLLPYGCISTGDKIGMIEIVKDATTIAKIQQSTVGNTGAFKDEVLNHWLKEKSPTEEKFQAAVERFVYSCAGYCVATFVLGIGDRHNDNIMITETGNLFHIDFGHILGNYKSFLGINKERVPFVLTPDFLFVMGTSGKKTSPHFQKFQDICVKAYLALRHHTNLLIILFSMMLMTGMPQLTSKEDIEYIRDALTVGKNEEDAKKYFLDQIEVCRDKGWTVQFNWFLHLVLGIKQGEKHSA
Chain of recombinant human PI3Kβ (6-His(p110-p85α)) (P42338 whole entry): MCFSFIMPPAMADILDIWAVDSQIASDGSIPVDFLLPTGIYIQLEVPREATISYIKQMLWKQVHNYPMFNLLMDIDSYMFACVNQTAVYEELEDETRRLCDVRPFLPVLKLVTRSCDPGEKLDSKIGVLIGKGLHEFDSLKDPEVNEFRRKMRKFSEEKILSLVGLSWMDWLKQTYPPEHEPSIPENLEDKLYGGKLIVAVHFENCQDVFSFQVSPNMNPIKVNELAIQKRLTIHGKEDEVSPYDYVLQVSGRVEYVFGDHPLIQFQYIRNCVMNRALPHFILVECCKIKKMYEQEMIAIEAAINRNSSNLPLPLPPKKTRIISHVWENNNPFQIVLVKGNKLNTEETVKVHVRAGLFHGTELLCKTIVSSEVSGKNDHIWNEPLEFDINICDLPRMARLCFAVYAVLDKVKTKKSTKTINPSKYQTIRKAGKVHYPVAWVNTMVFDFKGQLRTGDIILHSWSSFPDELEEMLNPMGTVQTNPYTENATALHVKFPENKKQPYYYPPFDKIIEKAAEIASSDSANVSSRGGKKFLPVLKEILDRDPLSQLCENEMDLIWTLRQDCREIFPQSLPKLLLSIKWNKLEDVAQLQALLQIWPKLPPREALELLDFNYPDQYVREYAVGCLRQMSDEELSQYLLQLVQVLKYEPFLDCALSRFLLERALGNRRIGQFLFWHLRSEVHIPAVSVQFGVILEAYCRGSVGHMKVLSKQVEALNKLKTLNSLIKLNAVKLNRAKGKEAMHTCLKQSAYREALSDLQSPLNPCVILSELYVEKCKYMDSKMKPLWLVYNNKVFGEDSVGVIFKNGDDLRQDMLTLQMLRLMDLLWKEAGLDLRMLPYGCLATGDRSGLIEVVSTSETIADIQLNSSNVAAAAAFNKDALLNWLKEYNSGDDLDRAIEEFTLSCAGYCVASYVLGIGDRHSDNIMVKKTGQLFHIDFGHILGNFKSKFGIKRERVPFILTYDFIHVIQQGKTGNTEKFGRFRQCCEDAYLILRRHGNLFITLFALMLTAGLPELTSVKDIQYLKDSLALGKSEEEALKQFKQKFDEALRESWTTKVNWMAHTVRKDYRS
Chain of recombinant human PI3Kβ (6-His(p110-p85α)) (P27986 whole entry partner): as the sequence (P27986 whole entry partner, the tested form may be a part) above

One may read the pIC50 as the negative decadic logarithm of the IC50, by convention in mol/L. As for `Cc1nc(Nc2cccc(N3CCCC3=O)n2)sc1-c1cc2c(c(S(C)(=O)=O)c1)C(=O)N([C@@H](C)C1CC1)C2` [Example 1, 2-[(1S)-1-Cyclopropylethyl]-5-(4-methyl-2-{[6-(2-oxopyrrolidin-1-yl)pyridin-2-yl]amino}-1,3-thiazol-5-yl)-7-(methylsulfonyl)-2,3-dihydro-1H-isoindol-1-one], the pIC50 was 9.15 in test [1], 9.05 in test [2], 7.26 in test [3] and 5.87 in test [4].

For the molecule `CC(=O)Nc1cccc(Nc2nc(C)c(-c3cc4c(c(S(C)(=O)=O)c3)C(=O)N([C@@H](C)C3CC3)C4)s2)n1` [Example 2, N-{6-[(5-{2-[(1S)-1-Cyclopropylethyl]-7-(methylsulfonyl)-1-oxo-2,3-dihydro-1H-isoindol-5-yl}-4-methyl-1,3-thiazol-2-yl)amino]pyridin-2-yl}acetamide], the pIC50 in test [1] was 7.71; in test [2], 9.05; in test [3], 6.58; in test [4] it was 5.43.

With `CC(=O)N(C)c1cccc(Nc2nc(C)c(-c3cc4c(c(S(C)(=O)=O)c3)C(=O)N([C@@H](C)C3CC3)C4)s2)n1` [Example 3, N-{6-[(5-{2-[(1S)-1-Cyclopropylethyl]-7-(methylsulfonyl)-1-oxo-2,3-dihydro-1H-isoindol-5-yl}-4-methyl-1,3-thiazol-2-yl)amino]pyridin-2-yl}-N-methylacetamide], the pIC50 was 8.85 in test [1], 9.10 in test [2], 6.90 in test [3] and 5.93 in test [4].

For `Cc1nc(Nc2cccc(N3CCCCC3=O)n2)sc1-c1cc2c(c(S(C)(=O)=O)c1)C(=O)N([C@@H](C)C1CC1)C2` [Example 4, 2-[(1S)-1-Cyclopropylethyl]-5-(4-methyl-2-{[6-(2-oxopiperidin-1-yl)pyridin-2-yl]amino}-1,3-thiazol-5-yl)-7-(methylsulfonyl)-2,3-dihydro-1H-isoindol-1-one], the values for the pIC50 in test [2], in test [3] and in test [4] were 9.00, 7.80 and 6.60, respectively.

On to `Cc1nc(Nc2cccc(N3CCN(C)C3=O)n2)sc1-c1cc2c(c(S(C)(=O)=O)c1)C(=O)N([C@@H](C)C1CC1)C2` [Example 5, 2-[(1S)-1-Cyclopropylethyl]-5-(4-methyl-2-{[6-(3-methyl-2-oxoimidazolidin-1-yl)pyridin-2-yl]amino}-1,3-thiazol-5-yl)-7-(methylsulfonyl)-2,3-dihydro-1H-isoindol-1-one], for which the pIC50 is 9.15 in test [1], 8.92 in test [2], 7.42 in test [3] and 5.33 in test [4].

As for `Cc1nc(Nc2cccc(N3CCNC3=O)n2)sc1-c1cc2c(c(S(C)(=O)=O)c1)C(=O)N([C@@H](C)C1CC1)C2` [Example 6, 2-[(1S)-1-Cyclopropylethyl]-5-(4-methyl-2-{[6-(2-oxoimidazolidin-1-yl)pyridin-2-yl]amino}-1,3-thiazol-5-yl)-7-(methylsulfonyl)-2,3-dihydro-1H-isoindol-1-one], the pIC50 in test [1] is 9.15; in test [2], 9.10; in test [3], 7.64; in test [4], 6.66.

For the molecule `Cc1nc(Nc2cccc(N3CCOCC3=O)n2)sc1-c1cc2c(c(S(C)(=O)=O)c1)C(=O)N([C@@H](C)C1CC1)C2` [Example 7, 2-[(1S)-1-Cyclopropylethyl]-5-(4-methyl-2-{[6-(3-oxomorpholin-4-yl)pyridin-2-yl]amino}-1,3-thiazol-5-yl)-7-(methylsulfonyl)-2,3-dihydro-1H-isoindol-1-one], the pIC50 in test [2] was 9.05; in test [3], 7.24; in test [4] it was 6.16.

Take `Cc1nc(Nc2cccc(N3CCCOC3=O)n2)sc1-c1cc2c(c(S(C)(=O)=O)c1)C(=O)N([C@@H](C)C1CC1)C2` [Example 8, 2-[(1S)-1-Cyclopropylethyl]-5-(4-methyl-2-{[6-(2-oxo-1,3-oxazinan-3-yl)pyridin-2-yl]amino}-1,3-thiazol-5-yl)-7-(methylsulfonyl)-2,3-dihydro-1H-isoindol-1-one]: the pIC50 in test [1] was 8.92; in test [2] it was 8.89; in test [3] it was 7.64; in test [4], 6.49.

For the molecule `Cc1nc(Nc2cccc(N3Cc4ncccc4C3=O)n2)sc1-c1cc2c(c(S(C)(=O)=O)c1)C(=O)N([C@@H](C)C1CC1)C2` [Example 9, 6-{6-[(5-{2-[(1S)-1-Cyclopropylethyl]-7-(methylsulfonyl)-1-oxo-2,3-dihydro-1H-isoindol-5-yl}-4-methyl-1,3-thiazol-2-yl)amino]pyridin-2-yl}-6,7-dihydro-5H-pyrrolo[3,4-b]pyridin-5-one], the pIC50 in test [1] was 8.57; in test [2], 9.00; in test [3], 4.94; in test [4] it was 4.48.

Turning to `Cc1nc(Nc2cccc(N3CCCC3=O)n2)sc1-c1cc2c(c(S(C)(=O)=O)c1)C(=O)N([C@@H](C)C(F)(F)F)C2` [Example 10, 5-(4-Methyl-2-{[6-(2-oxopyrrolidin-1-yl)pyridin-2-yl]amino}-1,3-thiazol-5-yl)-7-(methylsulfonyl)-2-[(2S)-1,1,1-trifluoropropan-2-yl]-2,3-dihydro-1H-isoindol-1-one], the results for the pIC50 in test [2], in test [3] and in test [4] were 9.05, 7.11 and 6.24, respectively.

With `Cc1nc(Nc2cccc(N3CCNC3=O)n2)sc1-c1cc2c(c(S(C)(=O)=O)c1)C(=O)N([C@@H](C)C(F)(F)F)C2` [Example 11, 5-(4-Methyl-2-{[6-(2-oxoimidazolidin-1-yl)pyridin-2-yl]amino}-1,3-thiazol-5-yl)-7-(methylsulfonyl)-2-[(2S)-1,1,1-trifluoropropan-2-yl]-2,3-dihydro-1H-isoindol-1-one], the pIC50 was 8.92 in test [1], 9.10 in test [2], 7.27 in test [3] and 6.54 in test [4].

`Cc1nc(Nc2cccc(N3CCOC3=O)n2)sc1-c1cc2c(c(S(C)(=O)=O)c1)C(=O)N([C@@H](C)C(F)(F)F)C2` [Example 12, 5-(4-Methyl-2-{[6-(2-oxo-1,3-oxazolidin-3-yl)pyridin-2-yl]amino}-1,3-thiazol-5-yl)-7-(methylsulfonyl)-2-[(2S)-1,1,1-trifluoropropan-2-yl]-2,3-dihydro-1H-isoindol-1-one]: the negative-log IC50 (pIC50) in test [1] was 8.80; in test [2], 9.05; in test [3], 6.52; in test [4], 5.39.

Consider `CNS(=O)(=O)c1cc(-c2sc(Nc3cccc(N4CCCCC4=O)n3)nc2C)cc2c1C(=O)N([C@@H](C)C1CC1)C2` [Example 19, 2-[(1S)-1-Cyclopropylethyl]-N-methyl-6-(4-methyl-2-{[6-(2-oxopiperidin-1-yl)pyridin-2-yl]amino}-1,3-thiazol-5-yl)-3-oxo-2,3-dihydro-1H-isoindole-4-sulfonamide], for which the pIC50 in test [3] was 7.74; in test [4], 6.77.

Turning to `Cc1nc(Nc2cccc(N3CCOCC3=O)n2)sc1-c1cc2c(c(S(=O)(=O)NC3COC3)c1)C(=O)N([C@@H](C)C1CC1)C2` [Example 31, 2-[(1S)-1-Cyclopropylethyl]-6-(4-methyl-2-{[6-(3-oxomorpholin-4-yl)pyridin-2-yl]amino}-1,3-thiazol-5-yl)-N-(oxetan-3-yl)-3-oxo-2,3-dihydro-1H-isoindole-4-sulfonamide], the pIC50 was 9.10 in test [2], 7.07 in test [3] and 6.22 in test [4].

Regarding `CNS(=O)(=O)c1cc(-c2sc(Nc3cccc(N4CCCNCC4=O)n3)nc2C)cc2c1C(=O)N([C@@H](C)C1CC1)C2` [Example 52, 2-[(1S)-1-Cyclopropylethyl]-N-methyl-6-(4-methyl-2-{[6-(2-oxo-1,4-diazepan-1-yl)pyridin-2-yl]amino}-1,3-thiazol-5-yl)-3-oxo-2,3-dihydro-1H-isoindole-4-sulfonamide], the pIC50 was 7.72 in test [1] and 7.65 in test [2].

The values are drawn from patent US10961236B2, “(S)-2-(1-cyclopropylethyl)-5-(4-methyl-2-((6-(2-oxopyrrolidin-1-yl)pyridin-2-yl)amino) thiazol-5-yl)-7-(methylsulfonyl)isoindolin-1-one as a phosphatidylinositol 3-kinase inhibitor” (AstraZeneca AB, priority 2016, dated 2021).
